Test results taken from US20240368120A1 (Terns Pharmaceuticals, Inc., priority 2023, published 2024).

Molecular target: T1, human GLP-1R receptor (Homo sapiens, UniProt P43220)
T1 construct: expressed in transfected cells
Assay: GLP-1R low expression cell assay (cAMP TR-FRET, CHO-K1_hGLP-1Rlow_clone10 cells)
Format: cell-based
Details: for EC50: cAMP TR-FRET, 30 min at 25° C.; for Emax: maximum activation relative to control GLP-1 peptide agonist
Procedure, shortened: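 CHO-K1 cells stably expressing low surface human GLP-1R (clone10), 1,000 cells/well, exposed to 10-point 3-fold compound dilutions for 30 min at 25 °C. cAMP measured by TR-FRET (Eu-cAMP tracer/ULight-anti-cAMP, 15 min). EC50 from Hill fit of duplicate percent activation relative to a parallel GLP-1 control agonist.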

T1 sequence (P43220 24-463): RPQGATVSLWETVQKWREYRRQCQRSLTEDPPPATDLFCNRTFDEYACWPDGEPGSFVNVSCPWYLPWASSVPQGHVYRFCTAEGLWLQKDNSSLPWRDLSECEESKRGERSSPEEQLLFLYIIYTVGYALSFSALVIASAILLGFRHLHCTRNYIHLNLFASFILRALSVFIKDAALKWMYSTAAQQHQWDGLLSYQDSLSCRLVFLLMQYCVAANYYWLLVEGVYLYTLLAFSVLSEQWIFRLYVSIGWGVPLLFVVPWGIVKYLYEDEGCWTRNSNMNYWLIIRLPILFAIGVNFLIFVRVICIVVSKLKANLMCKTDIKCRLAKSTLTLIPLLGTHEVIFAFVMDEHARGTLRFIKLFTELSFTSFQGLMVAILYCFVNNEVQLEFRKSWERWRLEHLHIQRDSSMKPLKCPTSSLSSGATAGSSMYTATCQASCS

SMILES | EC50 [nM] | Emax [%]
COc1ccc(COc2cccc(C3CCN(Cc4nc5c(OC(F)F)cc(C(=O)O)cc5n4C)CC3)n2)c(F)c1 [Compound 228, 4-(Difluoromethoxy)-2-((4-(6-((2-fluoro-4-methoxybenzyl)oxy)pyridin-2-yl)piperidin-1-yl)methyl)-1-methyl-1H-benzo[d]imidazole-6-carboxylic acid] | 10 to 100 | > 85
N#Cc1ccc(COc2cccc(C3CCN(Cc4nc5c(O)nc(C(=O)O)cc5n4C[C@@H]4CCO4)CC3)n2)c(F)c1 [Compound 143, (S)-2-((4-(6-((4-Cyano-2-fluorobenzyl)oxy)pyridin-2-yl)piperidin-1-yl)methyl)-4-hydroxy-1-(oxetan-2-ylmethyl)-1H-imidazo[4,5-c]pyridine-6-carboxylic acid] | < 10 | > 85
Cn1c(CN2CCC(c3cccc(OCc4cnc(C#N)cc4F)n3)CC2)nc2c(OC(F)F)cc(C(=O)O)cc21 [Compound 350, 2-((4-(6-((6-Cyano-4-fluoropyridin-3-yl)methoxy)pyridin-2-yl)piperidin-1-yl)methyl)-4-(difluoromethoxy)-1-methyl-1H-benzo[d]imidazole-6-carboxylic acid] | 100 to 1000 | > 85
COCCOc1cc(C(=O)O)cc2c1nc(CN1CCC(c3cccc4c3O[C@@](C)(c3ccc(Cl)cn3)O4)CC1)n2Cc1cncs1 [Compound 2, (S)-2-((4-(2-(5-Chloropyridin-2-yl)-2-methylbenzo[d][1,3]dioxol-4-yl)piperidin-1-yl)methyl)-4-(2-methoxyethoxy)-1-(thiazol-5-ylmethyl)-1H-benzo[d]imidazole-6-carboxylic acid] | < 10 | > 85
COc1cc(C(=O)O)cc2c1nc(N(C)[C@H]1CC[C@H](c3cccc(OCc4ccc(C#N)cc4F)n3)CC1)n2C [Compound 178, 2-(((1r,4r)-4-(6-((4-Cyano-2-fluorobenzyl)oxy)pyridin-2-yl)cyclohexyl)(methyl)amino)-4-methoxy-1-methyl-1H-benzo[d]imidazole-6-carboxylic acid] | < 10 | > 85
Cn1c(CN2CCC(c3ncccc3OCc3ccc(C#N)cc3F)CC2)nc2c(OC(F)F)cc(C(=O)O)cc21 [Compound 158, 2-((4-(3-((4-Cyano-2-fluorobenzyl)oxy)pyridin-2-yl)piperidin-1-yl)methyl)-4-(difluoromethoxy)-1-methyl-1H-benzo[d]imidazole-6-carboxylic acid] | > 1000 | 50 to 85
COc1cc(C(=O)O)cc2c1nc(CN1CCC(c3cccc4c3O[C@@H](c3ccc(C#N)cc3F)CO4)CC1)n2Cc1cncs1 [Compound 63, (S)-2-((4-(3-(4-cyano-2-fluorophenyl)-2,3-dihydrobenzo[b][1,4]dioxin-5-yl)piperidin-1-yl)methyl)-4-methoxy-1-(thiazol-5-ylmethyl)-1H-benzo[d]imidazole-6-carboxylic acid] | < 10 | 
Cn1c(CN2CCC(c3cccc(Cl)c3OCc3ccc(C#N)cc3F)CC2)nc2c(OC(F)F)cc(C(=O)O)cc21 [Compound 138, 2-((4-(3-Chloro-2-((4-cyano-2-fluorobenzyl)oxy)phenyl)piperidin-1-yl)methyl)-4-(difluoromethoxy)-1-methyl-1H-benzo[d]imidazole-6-carboxylic acid] | > 1000 | 25 to 50
Cn1c(CN2CCC(c3ccc4ccn(Cc5ccc(Cl)cc5F)c4n3)CC2)nc2c(OC(F)F)cc(C(=O)O)cc21 [Compound 205, 2-((4-(1-(4-Chloro-2-fluorobenzyl)-1H-pyrrolo[2,3-b]pyridin-6-yl)piperidin-1-yl)methyl)-4-(difluoromethoxy)-1-methyl-1H-benzo[d]imidazole-6-carboxylic acid] | > 1000 | 50 to 85
[2H]C([2H])([2H])N(c1nc2c(OC(F)F)cc(C(=O)O)cc2n1C)[C@H]1CC[C@H](c2cccc(OCc3ccc(Cl)cc3F)n2)CC1 [Compound 372, 2-(((1r,4r)-4-(6-((4-Chloro-2-fluorobenzyl)oxy)pyridin-2-yl)cyclohexyl)(methyl-d3)amino)-4-(difluoromethoxy)-1-methyl-1H-benzo[d]imidazole-6-carboxylic acid] | < 10 | > 85
COc1cc(C(=O)O)cc2c1nc([C@@H](C)N1CCC(c3cccc(OCc4ccc(C#N)cc4F)n3)CC1)n2C[C@@H]1CCO1 [Compound 94, 2-((R)-1-(4-(6-((4-Cyano-2-fluorobenzyl)oxy)pyridin-2-yl)piperidin-1-yl)ethyl)-4-methoxy-1-(((S)-oxetan-2-yl)methyl)-1H-benzo[d]imidazole-6-carboxylic acid] | > 1000 | > 85
COc1cc(C(=O)O)cc2c1nc(N(C)[C@H]1CC[C@H](c3cccc(OCc4ccc(Cl)cc4F)n3)CC1)n2C [Compound 363, 2-(((1r,4r)-4-(6-((4-Chloro-2-fluorobenzyl)oxy)pyridin-2-yl)cyclohexyl)(methyl)amino)-4-methoxy-1-methyl-1H-benzo[d]imidazole-6-carboxylic acid] | < 10 | > 85
Cn1c(CN2CCC(c3cccc(COc4ccc(Cl)cc4F)n3)C2)nc2c(OC(F)F)cc(C(=O)O)cc21 (stereo not drawn) [Compound 362, 2-((3-(6-((4-Chloro-2-fluorophenoxy)methyl)pyridin-2-yl)pyrrolidin-1-yl)methyl)-4-(difluoromethoxy)-1-methyl-1H-benzo[d]imidazole-6-carboxylic acid] | > 1000 | 50 to 85
Cn1c(CN2CCC(c3cccc(OCc4ccc(Cl)cc4F)n3)CC2)nc2c3c(c(C(=O)O)cc21)OCO3 [Compound 275, 7-((4-(6-((4-Chloro-2-fluorobenzyl)oxy)pyridin-2-yl)piperidin-1-yl)methyl)-6-methyl-6H-[1,3]dioxolo[4′,5′:3,4]benzo[1,2-d]imidazole-4-carboxylic acid] | 10 to 100 | > 85
CN1C(=O)[C@H](c2ccc(Cl)cc2F)Oc2c(C3CCN(Cc4nc5c(OC(F)F)cc(C(=O)O)cc5n4C)CC3)cccc21 [Compound 241, (S)-2-((4-(2-(4-chloro-2-fluorophenyl)-4-methyl-3-oxo-3,4-dihydro-2H-benzo[b][1,4]oxazin-8-yl)piperidin-1-yl)methyl)-4-(difluoromethoxy)-1-methyl-1H-benzo[d]imidazole-6-carboxylic acid] | > 1000 | < 25
Cn1c(CN2CCC(c3cccnc3OCc3ccc(Cl)cc3F)CC2)nc2c(OC(F)F)cc(C(=O)O)cc21 [Compound 364, 2-((4-(2-((4-Chloro-2-fluorobenzyl)oxy)pyridin-3-yl)piperidin-1-yl)methyl)-4-(difluoromethoxy)-1-methyl-1H-benzo[d]imidazole-6-carboxylic acid] | 10 to 100 | > 85
COCC(F)(F)Oc1cc(C(=O)O)cc2c1nc(CN1CCC(c3cccc(OCc4ccc(Cl)cc4F)n3)CC1)n2C [Compound 227, 2-((4-(6-((4-Chloro-2-fluorobenzyl)oxy)pyridin-2-yl)piperidin-1-yl)methyl)-4-(1,1-difluoro-2-methoxyethoxy)-1-methyl-1H-benzo[d]imidazole-6-carboxylic acid] | < 10 | > 85
